In patent US12496301B2, “Use of androgen receptor degrader for the treatment of spinal and bulbar muscular atrophy” (Arvinas Operations, Inc., priority 2023, dated 2025):

Target: T1, AR (Homo sapiens, UniProt P10275)
T1 sequence (P10275 1-920 Q868H): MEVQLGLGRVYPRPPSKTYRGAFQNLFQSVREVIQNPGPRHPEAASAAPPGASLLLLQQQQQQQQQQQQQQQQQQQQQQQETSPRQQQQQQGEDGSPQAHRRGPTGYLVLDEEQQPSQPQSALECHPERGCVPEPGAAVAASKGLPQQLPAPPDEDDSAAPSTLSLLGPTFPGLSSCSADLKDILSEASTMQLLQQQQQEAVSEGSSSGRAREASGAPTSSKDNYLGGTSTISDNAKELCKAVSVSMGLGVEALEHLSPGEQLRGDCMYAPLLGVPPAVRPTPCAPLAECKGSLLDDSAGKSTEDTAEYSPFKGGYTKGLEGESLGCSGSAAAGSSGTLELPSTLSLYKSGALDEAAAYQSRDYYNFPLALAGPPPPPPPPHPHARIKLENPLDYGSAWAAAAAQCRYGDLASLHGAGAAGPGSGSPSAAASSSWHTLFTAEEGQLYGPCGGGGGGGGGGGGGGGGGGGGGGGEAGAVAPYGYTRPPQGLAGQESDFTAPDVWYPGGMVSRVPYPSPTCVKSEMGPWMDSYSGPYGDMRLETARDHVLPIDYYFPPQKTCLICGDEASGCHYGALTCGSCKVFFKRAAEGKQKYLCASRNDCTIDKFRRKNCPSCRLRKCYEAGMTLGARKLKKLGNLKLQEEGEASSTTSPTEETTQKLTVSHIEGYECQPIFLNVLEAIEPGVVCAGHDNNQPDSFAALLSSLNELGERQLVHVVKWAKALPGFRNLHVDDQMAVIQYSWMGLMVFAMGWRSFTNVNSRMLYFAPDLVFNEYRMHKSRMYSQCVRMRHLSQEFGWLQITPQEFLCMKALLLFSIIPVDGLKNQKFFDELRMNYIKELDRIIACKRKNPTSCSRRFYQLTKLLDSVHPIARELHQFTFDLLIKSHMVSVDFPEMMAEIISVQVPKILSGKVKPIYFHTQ
Test: AR agonism assay in MDA-MB-453 ARE-luc reporter cells in the presence of pomalidomide
Type: cell-based
Details: MDA-MB-453 AR luciferase reporter, with pomalidomide
Method: The AR Responsive Luciferase Reporter MDA-MB-453 Stable Cell Line (MDA-MB-453 ARE-luc) was utilized for the AR agonism assay. These cells constitutively express the firefly luciferase reporter gene under the control of the androgen receptor response element. MDA-MB-453 ARE-luc cells were cultured in RPMI media (Thermo Fisher Scientific) supplemented with 5% charcoal-Dextran treated fetal bovine serum and were maintained at 37° C. in a 5% CO2 incubator. On day 0, the cells were seeded in 96-well plates at a density of 5×10^6 cells per plate. To prevent serum androgen interference during the AR agonism assay, the cells were cultured in phenol-free RPMI media without FBS. On day 1, the cells were treated with the compounds to establish concentration-response curves (CRCs). The compounds were administered at a top concentration of 300 nM with half-log dilutions. The synthetic AR agonist R1881 served as a positive control, with a top concentration of 30 nM and half-log dilutions. E3 ligase inhibitor pomalidomide was included in each well alongside the compounds at a concentration tenfold higher than that of the treated compounds. On day 2, the culture medium was removed, and luminescence data were obtained using the Bright Glo Assay (Promega, Catalog No. E2620) with 50 μL of Bright Glo buffer per well. Luminescence signals were recorded using a plate reader, and the agonism effect was calculated as a percentage using the formula: Agonism effect (%)=(Luminescence signal of compound/Maximum signal of R1881 at 30 nM)*100.

## CC(C)N(CC1CCN(c2ncc(C(=O)N[C@H]3C(C)(C)[C@H](Oc4ccc(C#N)c(Cl)c4)C3(C)C)cn2)CC1)[C@H]1C[C@H](Oc2ccc3c(c2)C(=O)N(C2CCC(=O)NC2=O)C3=O)C1 (some centres unmarked) [Compound A, N-((1r,3r)-3-(3-chloro-4-cyanophenoxy)-2,2,4,4-tetramethylcyclobutyl)-2-(4-((((1r,3r)-3-((2-(2,6-dioxopiperidin-3-yl)-1,3-dioxoisoindolin-5-yl)oxy)cyclobutyl)(isopropyl)amino)methyl)piperidin-1-yl)pyrimidine-5-carboxamide]
  agonism activity at Emax relative to R1881: < 40%
read-out: EC50, AR agonist activity
  EC50: 69 nM
